# The source made the active and inactive calls. No cut-off for these calls is given here.
# Tests used:
# [1] = tested on: Escherichia coli; assay: Antibacterial activity against Escherichia coli ATCC 25922 assessed as inhibition of bacterial growth incubated for 24 hrs by agar diffusion method; assay type: functional, organism-based
# [2] = tested on: Pseudomonas aeruginosa; assay: Antibacterial activity against Pseudomonas aeruginosa ATCC 27853 assessed as zone of growth inhibition incubated for 24 hrs by agar diffusion method; assay type: functional; note: test concentration or dose not given here
# [3] = tested on: Pseudomonas aeruginosa; assay: Antibacterial activity against Pseudomonas aeruginosa assessed as inhibition of bacterial growth incubated for 24 hrs by CLSI broth microdilution method; assay type: functional; settings: for MIC: Pseudomonas aeruginosa
# [4] = Inhibition of quorum sensing system in Pseudomonas aeruginosa assessed as inhibition of biofilm production at sub-MIC incubated for 24 hrs by crystal violet staining based analysis
# [5] = Inhibition of quorum sensing system in Pseudomonas aeruginosa assessed as inhibition of pyocyanin production at sub-MIC by absorbance based analysis
# [6] = Inhibition of quorum sensing system in Pseudomonas aeruginosa assessed as inhibition of rhamnolipid production at sub-MIC by spectrophotometric method
# [7] = tested on: Klebsiella pneumoniae; assay: Antibacterial activity against Klebsiella pneumoniae ATCC 700603 assessed as inhibition of bacterial growth incubated for 24 hrs by agar diffusion method; assay type: functional, organism-based
# [8] = tested on: Candida albicans; assay: Antifungal activity against Candida albicans ATCC 60193 assessed as inhibition of fungal growth incubated for 48 hrs by agar diffusion method; assay type: functional, organism-based
# [9] = tested on: Bacillus subtilis; assay: Antibacterial activity against Bacillus subtilis ATCC 6633 assessed as inhibition of bacterial growth incubated for 24 hrs by agar diffusion method; assay type: functional, organism-based
# [10] = Cytotoxicity against human HDFa cells assessed as reduction in cell viability incubated for 24 hrs by MTT assay; assay type: toxicity, cell-based
# [11] = Selectivity index, ratio of IC50 for human HDFa cells to MIC for antibacterial activity against Pseudomonas aeruginosa; assay type: toxicity; settings: read-out: Selectivity Index
Compound,Activity [1],inhibition zone (IZ) [2] [mm],SubMIC [3] [µM],MIC [3] [µM],inhibition [4] [%],inhibition [5] [%],inhibition [6] [%],Activity [7],Activity [8],Activity [9],IC50 at 24 h [10] [µg/mL],selectivity ratio [11]
Cc1ccc(NC(=O)COc2ccc(-c3nc4cc(C)ccc4[nH]3)cc2)cc1,Active,16,18.8,57.7,64.9,60,37.8,,,,,
c1ccc2[nH]c(-c3ccc(N4CCOCC4)cc3)nc2c1,,18,50.1,201,60.5,55.2,35.7,Active,,,,
O=C(COc1ccc(-c2nc3cc(Cl)ccc3[nH]2)cc1)Nc1ccc(F)cc1,,19,8.8,35.3,45,32.8,18.1,Active,Active,,,
O=C(COc1ccc(-c2nc3ccccc3[nH]2)cc1)Nc1ccc(Cl)cc1,,17,37,149,63.1,58,34.4,Active,Active,,,
O=C(COc1ccc(-c2nc3cc(Cl)ccc3[nH]2)cc1)Nc1ccc([N+](=O)[O-])cc1,,16,16.5,66.5,32.5,14.8,7,Active,,,,
Cc1ccc2[nH]c(-c3ccc(OCC(=O)Nc4ccc([N+](=O)[O-])cc4)cc3)nc2c1,,15,17.4,69.9,44.1,33.7,15,,,Active,,
O=C(COc1ccc(-c2nc3cc(Cl)ccc3[nH]2)cc1)Nc1ccc(Cl)cc1,Active,17,16.9,68.2,31,13.4,3.7,Active,,,,
C/C(=C\C(=O)OCCCCCCCCC(=O)O)C[C@@H]1OC[C@H](C[C@@H]2O[C@H]2[C@@H](C)[C@H](C)O)[C@@H](O)[C@H]1O [MUPIROCIN],,,,,,,,,,,161,
O=C(COc1ccc(-c2nc3cc(Cl)ccc3[nH]2)cc1)Nc1ccccc1[N+](=O)[O-],,16,16.5,66.5,51.8,35.8,20.4,Active,,,,
O=C(COc1ccc(-c2nc3ccccc3[nH]2)cc1)Nc1ccc(F)cc1,,17,38.7,156,51.8,37,27.7,,,,,
Cc1ccccc1NC(=O)COc1ccc(-c2nc3cc(Cl)ccc3[nH]2)cc1,,16,17.8,71.7,29,6.5,3,Active,,,,
O=C(COc1ccc(-c2nc3ccccc3[nH]2)cc1)Nc1ccccc1,,19,40.7,164,51.5,36.7,28.2,,,,,
O=C(COc1ccc(-c2nc3cc(Cl)ccc3[nH]2)cc1)Nc1ccccc1,,15,18.5,74.4,53.1,35.5,20.7,,,,102,3.63
Cc1ccc(NC(=O)COc2ccc(-c3nc4cc(Cl)ccc4[nH]3)cc2)cc1,,18,8.9,35.7,31.3,24.5,11.4,Active,,,,
O=C(COc1ccc(-c2nc3ccccc3[nH]2)cc1)Nc1ccccc1[N+](=O)[O-],,15,36,145,63.8,60.3,44.6,,,Active,,
Cc1ccc(NC(=O)COc2ccc(-c3nc4ccccc4[nH]3)cc2)cc1,,13,39.1,157,52.4,36.4,25.1,,,,,
O=C(COc1ccc(-c2nc3ccccc3[nH]2)cc1)Nc1ccc([N+](=O)[O-])cc1,,17,36,145,63.6,57.6,35.2,,,,,
C[C@@H](O)[C@H]1C(=O)N2C(C(=O)O)=C(SCCNC=N)C[C@H]12 [IMIPENEM ANHYDROUS],,19,,93.9,,,,,,,,
c1ccc2[nH]c(-c3ccc(-n4ccnc4)cc3)nc2c1,,18,26.8,109,46.1,34,20.1,Active,,,,
Cc1ccc2[nH]c(-c3ccc(OCC(=O)Nc4ccc(F)cc4)cc3)nc2c1,,19,9.3,37.2,59.6,55.8,35.2,,,Active,,
COc1ccc(NC(=O)COc2ccc(-c3nc4cc(Cl)ccc4[nH]3)cc2)cc1,,17,8.5,34.3,39.2,28.9,13.8,,Active,Active,,
Cc1ccc2[nH]c(-c3ccc(OCC(=O)Nc4ccccc4)cc3)nc2c1,,15,19.5,78.7,56.3,54.3,33,,,Active,,
COc1ccc(NC(=O)COc2ccc(-c3nc4cc(C)ccc4[nH]3)cc2)cc1,Active,15,9,36.1,36.7,29,12.6,,,Active,,
Cc1ccc2[nH]c(-c3ccc(OCC(=O)Nc4ccccc4C)cc3)nc2c1,,14,18.8,57.7,39.5,31,13.6,,Active,,,
Cc1ccc2[nH]c(-c3ccc(OCC(=O)Nc4ccc(Cl)cc4)cc3)nc2c1,,19,8.9,35.7,55.7,38.2,29.6,,,Active,,

# Reference: ChEMBL document CHEMBL5108020, “Design and synthesis of novel benzimidazole derivatives as potential Pseudomonas aeruginosa anti-biofilm agents inhibiting LasR: Evidence from comprehensive molecular dynamics simulation and in vitro investigation” (Eur J Med Chem, 2022)
